Data published in patent publication US7022699B2, “Cyclohexenyl phenyl diazepines vasopressin and oxytocin receptor modulators” (Wyeth, priority 2001, dated 2006).

Target: T1, human oxytocin receptor (Homo sapiens, UniProt P30559)
T1 construct: host or cells: CHO cells, stably transfected (pcDNA3.1 vector); membranes
T1 sequence (P30559 1-389): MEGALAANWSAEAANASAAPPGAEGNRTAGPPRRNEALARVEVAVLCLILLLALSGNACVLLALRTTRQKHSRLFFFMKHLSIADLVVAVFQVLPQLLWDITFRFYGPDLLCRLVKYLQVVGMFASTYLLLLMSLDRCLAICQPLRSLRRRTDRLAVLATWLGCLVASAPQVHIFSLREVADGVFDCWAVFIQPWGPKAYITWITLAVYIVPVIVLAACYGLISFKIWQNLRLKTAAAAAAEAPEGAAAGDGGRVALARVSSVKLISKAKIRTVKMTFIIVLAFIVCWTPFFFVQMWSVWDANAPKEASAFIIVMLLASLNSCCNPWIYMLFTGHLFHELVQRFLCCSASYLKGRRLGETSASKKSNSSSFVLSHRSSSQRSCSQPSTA
Assay: Oxytocin binding in CHO cell membranes expressing human oxytocin receptors ([3H]oxytocin)
Details: 100 nM, values without parentheses
Text: Oxytocin Binding in Chinese Hamster Ovary Cell Membranes Expressing Human Oxytocin Receptors
Chinese Hamster Ovary (CHO) cells stably transfected with the human oxytocin (cf. Tanizawa et al., U.S. Pat. No. 5,466,584 (1995) to Rohto Pharmaceutical Co. Ltd., Osaka, Japan) were obtained from M. Thibonnier, Case Western Reserve University School of Medicine, Cleveland, Ohio. A. Passaging and Amplification of Cells: CHO cells transfected with the human oxytocin receptors obtained from M. Thibonnier (pcDNA3.1 vector) are allowed to grow to confluency (approx. >90%) in T-150 flasks under sterile conditions, in a cell culture medium of F-12 Nutrient Mixture (HAM) with L-glutamine (Gibco Cat. #11765-054) containing 15 mM HEPES (Gibco Cat. #15630-080), 1% antibiotic/antimycotic (add 5 mL 100×, Gibco Cat. #15240-062 per 500 mL F-12), 400 μg/mL of Geneticin (add 4 mL of 50 mg/mL per 500 mL F-12) and 10% Fetal Bovine Serum (Qualified, heat inactivated, Gibco Cat. #16140-063). The medium is removed by aspiration and the cells are washed with 10 mL of Hank's Balanced Salt solution (Gibco Cat. #14175-095). The salt solution is removed by aspiration and the cells trypsinized with 5 mL of trypsin-EDTA (0.05% trypsin, 0.53 mM EDTA-4Na, Gibco Cat. #25300-070) for 1 min. The trypsin is removed by aspiration and the cells dislodged by tapping. Cell Culture medium (e.g. 30 mL for 1:30 split) is immediately added and mixed well to inactivate trypsin. 1 mL of detached cells is added to new culture flasks containing fresh Cell Culture medium (e.g. into 25 mL per T-150 flask), and mixed gently. The cells are incubated at 37° C. in 5% CO2. The medium is changed at 3 to 4 days interval (or as appropriate). The cells grow to confluency (approx. >75%–95%) within 7–8 days. All steps are done under sterile conditions. B. Membrane Preparation: The cells are washed twice gently with Hank's Balanced Salt solution (e.g., use 10 mL per T-150 flask). The excess is removed and the cells bathed for 15–30 min. in an enzyme-free Cell Dissociation Buffer (e.g., use 8 mL Hank's Based, Gibco Cat. #13150-016 per T-150 flask) until cells are loosened. The contents are transferred to centrifuge tubes (50 mL size) kept in ice bath. All subsequent steps are done at 4° C. The tubes are centrifuged at 300×g for 15 min (1380 rpm on SORVAL, Model RT6000D, using rotor for 50 mL tubes). The supernatant is discarded and the cells suspended in homogenizing buffer (10 mM Tris-HCl containing 0.25 M sucrose and 1 mM EDTA, pH 7.4) ensuring that the volume of the buffer is about ten times the volume of the cell pellet. The cells are pooled into a centrifuge tube (50 mL) and homogenized with Polytron at setting 6 for 10 sec. The homogenate is transferred into a Potter-Elvjehm homogenizer and homogenized with 3 strokes. The homogenate is centrifuged at 1500×g for 10 min at 4° C. (3100 rpm using SORVAL, model RT6000D, using rotor for 50 mL tubes). The pellet. is discarded. The supernatant is centrifuged at 100,000×g for 60 min. at 4° C. (Beckman L8-80M ultracentrifuge; spin at 37,500 rpm with rotor type 70 Ti for 50 mL tubes; 38,000 rpm with type 80Ti for 15 mL tubes; or 35,800 rpm with rotor type 45Ti). The supernantant is discarded and the pellet suspended in 3 to 4 mL of Tris buffer (50 mM TRIS-HCl, pH 7.4). The protein content is estimated by the Bradford or Lowry method. The volume of the membrane suspension is adjusted with the membrane buffer (50 mM Tris-HCl containing 0.1% BSA and 0.1 mM PMSF) to give 3.0 mg/mL (or as appropriate) of protein. The membranes are aliquoted and stored at −70° C. C. Radioligand Binding Assay: In wells of a 96-well format microliter plate, is added 90, 110 or 130 μL (to make up a final volume of 200 μL) of assay buffer containing 50 mM of Tris-HCl (pH 7.4), […], 1 mg % aprotinin, 1 mg % leupeptin, 2 mg % 1,10-phenanthroline, 10 mg % trypsin inhibitor, and 0.1 mM PMSF. The inhibitors are added on the day of the experiment. […]

OT % inhibition @ 100 nM	Compound
27%	CC(C)(C)C1CCCC=C1c1ccc(C(=O)N2Cc3cccn3Cc3ccccc32)cc1 (centres unmarked) [Example 20, (10,11-5H-Dihydro-pyrrolo[2,1-c][1,4]benzodiazepin-10-yl)-[4-(6-tert-butyl-cyclohex-1-en-1-yl)-phenyl]-methanone]
38%	O=C(c1ccc(C2=CCC3CCC2C3)cc1)N1Cc2cccn2Cc2ccccc21 (centres unmarked) [Example 21]

Same assay, conditions: 100 nM, values without parentheses, read-out: OT % inhibition @ 100 nM

inhibition at 0.1 µM	Compound
13%	CC1=C(c2ccc(C(=O)N3Cc4cccn4Cc4ccccc43)cc2C)CCCC1O (racemic) [Example 5, (10,11-Dihydro-5H-pyrrolo[2,1-c][1,4]benzodiazepin-10-yl)-[4-(3-hydroxy-2-methyl-cyclohex-1-en-1-yl)-3-methyl-phenyl]-methanone]
90%	CC1=C(c2ccc(C(=O)N3Cc4cccn4Cc4ccccc43)cc2C)CCC[C@H]1O (single isomer, unassigned) [Example 41]
96%	CC1=C(c2ccc(C(=O)N3Cc4cccn4Cc4ccccc43)cc2C)CCC[C@@H]1O (single isomer, unassigned) [Example 43]
96%	Cc1cc(C(=O)N2Cc3cccn3Cc3ccccc32)ccc1C1=CCCCC1 [Example 2, (10,11-Dihydro-5H-pyrrolo[2,1-c][1,4]benzodiazepin-10-yl)-(4-cyclohex-1-en-1-yl-3-methyl-phenyl)-methanone]
46%	CC1=C(c2ccc(C(=O)N3Cc4cccn4Cc4ccccc43)cc2C)CCCC1=O [Example 4, 3-[2-Methyl-4-(5H-pyrrolo[2,1-c][1,4]benzodiazepin-10(11H)-yl-carbonyl)phenyl]-2-methyl-cyclohex-2-en-1-one]
95%	CC1=C(c2ccc(C(=O)N3Cc4cccn4Cc4ccccc43)cc2C)CCC[C@H]1O [Example 6, (10,11-Dihydro-5H-pyrrolo[2,1-c][1,4]benzodiazepin-10-yl)-[4-((3R)-3-hydroxy-2-methyl-cyclohex-1-en-1-yl)-3-methyl-phenyl]-methanone]
93%	COc1cc(C2=CCCc3ccccc32)c(Cl)cc1C(=O)N1Cc2cccn2Cc2ccccc21 [Example 8, 10-[5-Chloro-4-(3,4-dihydro-naphthalen-1-yl)-2-methoxybenzoyl]-10,11-dihydro-5H-pyrrolo[2,1-c][1,4]benzodiazepine]
90%	COc1cc(C2=C(C)C(=O)CCC2)c(Cl)cc1C(=O)N1Cc2cccn2Cc2ccccc21 [Example 9, 3-[2-Chloro-5-methoxy-4-(5H-pyrrolo[2,1-c][1,4]benzodiazepin-10(11H)-yl-carbonyl)phenyl]-2-methyl-cyclohex-2-en-1-one]
95%	O=C(c1ccc(C2=CCCCC2)cc1Cl)N1Cc2cccn2Cc2ccccc21 [Example 10, (10,11-dihydro-5H-pyrrolo[2,1-c][1,4]benzodiazepin-10-yl)-[2-chloro-4-(cyclohex-1-en1-yl)-phenyl]-methanone]
65%	O=C(c1ccc(C2=CCCc3ccccc32)cc1Cl)N1Cc2cccn2Cc2ccccc21 [Example 11, (10,11-Dihydro-5H-pyrrolo[2,1-c][1,4]benzodiazepin-10-yl)-[2-chloro-4-(3,4-dihydro-naphthalen-1-yl)-phenyl]-methanone]
74%	CC1(C)CCCC=C1c1ccc(C(=O)N2Cc3cccn3Cc3ccccc32)c(Cl)c1 [Example 12, (10,11-Dihydro-5H-pyrrolo[2,1-c][1,4]benzodiazepin-10-yl)-[2-chloro-4-(6,6-dimethyl-cyclohex-1-en-1-yl)-phenyl]-methanone]
98%	CC1=C(c2ccc(C(=O)N3Cc4cccn4Cc4ccccc43)c(Cl)c2)CCCC1=O [Example 13, (10,11-Dihydro-5H-pyrrolo[2,1-c][1,4]benzodiazepin-10-yl)-[2-chloro-4-(2-methyl-3-oxo-cyclohex-1-en-1-yl)-phenyl]-methanone]
27%	CC1=C(c2ccc(C(=O)N3Cc4cccn4Cc4ccccc43)c(Cl)c2)CCCC1O (centres unmarked) [Example 14, (10,11-Dihydro-5H-pyrrolo[2,1-c][1,4]benzodiazepin-10-yl)-[2-chloro-4-(3-hydroxy-2-methyl-cyclohex-1-en-1-yl)-phenyl]-methanone]
76%	CC1(C)CCCC=C1c1ccc(C(=O)N2Cc3cccn3Cc3ccccc32)cc1 [Example 17, (10,11-Dihydro-5H-pyrrolo[2,1-c][1,4]benzodiazepin-10-yl)-[4-(6,6-dimethyl-cyclohex-1-en-1-yl)-phenyl]-methanone]
80%	O=C(c1ccc(C2=CCCc3ccccc32)cc1)N1Cc2cccn2Cc2ccccc21 [Example 18, (10,11-Dihydro-5H-pyrrolo[2,1-c][1,4]benzodiazepin-10-yl)-[4-(3,4-dihydro-naphthalen-1-yl)-phenyl]-methanone]
47%	CC1=C(c2ccc(C(=O)N3Cc4cccn4Cc4ccccc43)cc2)C(C)CCC1 (centres unmarked) [Example 19, (10,11-Dihydro-5H-pyrrolo[2,1-c][1,4]benzodiazepin-10-yl)-[4-(2,6-dimethyl-cyclohex-1-en-1-yl)-phenyl]-methanone]

Same assay, conditions: values in parentheses, read-out: OT (IC50)

IC50	Compound
0.00774 µM	COc1cc(C2=CCCCC2)c(Cl)cc1C(=O)N1Cc2cccn2Cc2ccccc21 [Example 1, 10-(5-Chloro-4-cyclohex-1-en-1-yl-2-methoxybenzoyl)-10,11-dihydro-5H-pyrrolo[2,1-c][1,4]benzodiazepine]
0.024 µM	Cc1cc(C(=O)N2Cc3cccn3Cc3ccccc32)ccc1C1=CCCc2ccccc21 [Example 3, (10,11-Dihydro-5H-pyrrolo[2,1-c][1,4]benzodiazepin-10-yl)-[4-(3,4-dihydro-naphthalen-1-yl)-3-methyl-phenyl]-methanone]
0.00906 µM	CC1=C(c2ccc(C(=O)N3Cc4cccn4Cc4ccccc43)cc2)CCCC1 [Example 7, (10,11-Dihydro-5H-pyrrolo[2,1-c][1,4]benzodiazepin-10-yl)-[4-(2-methyl-cyclohex-1-en-1-yl)-phenyl]-methanone]
0.0489 µM	O=C(c1ccc(C2=CCCCC2)cc1)N1Cc2cccn2Cc2ccccc21 [Example 15, (10,11-Dihydro-5H-pyrrolo[2,1-c][1,4]benzodiazepin-10-yl)-(4-cyclohex-1-en-1-yl-phenyl)-methanone]
0.0218 µM	CC1CCCC=C1c1ccc(C(=O)N2Cc3cccn3Cc3ccccc32)cc1 (centres unmarked) [Example 16, (10,11-Dihydro-5H-pyrrolo[2,1-c][1,4]benzodiazepin-10-yl)-[4-(6-methyl-cyclohex-1-en-1-yl)-phenyl]-methanone]
